pIC50: −log10 of the molar value. Structures can show the parent of a compound that is named as a salt.
Molecular target: T1, α7-subtype of nicotinic receptors (Rattus norvegicus, UniProt Q05941)
T1 construct: Cerebral cortices from male Wistar rats (150-250 g) are homogenised; from tissue; host or cells: rat cerebral cortex membrane homogenate (male Wistar rats)
Assay: In vitro inhibition of 3H-α-bungarotoxine binding in rat brain
Details: rat cerebral cortex homogenate; 3H-α-bungarotoxine 2 nM; 2 hours at 37° C.

T1 sequence (Q05941 23-502): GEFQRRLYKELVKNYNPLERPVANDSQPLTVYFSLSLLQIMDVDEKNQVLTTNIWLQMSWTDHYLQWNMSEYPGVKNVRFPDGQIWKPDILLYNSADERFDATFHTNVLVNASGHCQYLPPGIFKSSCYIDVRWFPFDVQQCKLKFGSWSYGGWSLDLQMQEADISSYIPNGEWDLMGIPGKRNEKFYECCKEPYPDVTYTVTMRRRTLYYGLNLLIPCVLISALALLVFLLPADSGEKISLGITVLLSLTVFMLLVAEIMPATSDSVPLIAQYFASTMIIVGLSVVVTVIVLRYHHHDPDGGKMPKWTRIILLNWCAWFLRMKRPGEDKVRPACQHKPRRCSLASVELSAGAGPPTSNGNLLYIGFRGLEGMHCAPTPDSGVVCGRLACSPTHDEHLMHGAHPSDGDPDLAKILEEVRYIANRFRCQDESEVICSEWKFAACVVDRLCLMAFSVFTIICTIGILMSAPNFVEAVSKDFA

Compound: c1ccc2c(c1)ncn2C1CN2CCC1CC2 (racemic) [Compound A1, (±)-3-(1-Benzimidazolyl)-quinuclidine fumaric acid salt]
- pIC50: 6.40
